Type in all cases: cell-based
In experiment [1] the target is T1, Nav1.8 (Homo sapiens, UniProt Q9Y5Y9). Description: Nav1.8 FLIPR HTS. Conditions: HEK293, read-out: Average percent inhibition at 10 μM (Nav1.8).
For experiment [2], the target named is T1, Nav1.8. Description: Nav1.8 automated patch clamp.
The next experiment addresses human KV7.1 (Homo sapiens, UniProt P51787). Description: KV7.1 86Rb+ efflux HTS. Conditions: for inhibition at 10 µM: CHO, read-out: Average percent inhibition at 10 μM (KCNQ1); for Average percent inhibition at 10 μM (KCNQ1): n=2, CHO cells, 86Rb+ efflux, normalized to 10 μM chromanol 293B control.

Molecules are shown by their SMILES. pIC50: −log10 of the molar value. Where a name gives a salt, the structure may show the parent alone.

T1 sequence (Q9Y5Y9 whole entry): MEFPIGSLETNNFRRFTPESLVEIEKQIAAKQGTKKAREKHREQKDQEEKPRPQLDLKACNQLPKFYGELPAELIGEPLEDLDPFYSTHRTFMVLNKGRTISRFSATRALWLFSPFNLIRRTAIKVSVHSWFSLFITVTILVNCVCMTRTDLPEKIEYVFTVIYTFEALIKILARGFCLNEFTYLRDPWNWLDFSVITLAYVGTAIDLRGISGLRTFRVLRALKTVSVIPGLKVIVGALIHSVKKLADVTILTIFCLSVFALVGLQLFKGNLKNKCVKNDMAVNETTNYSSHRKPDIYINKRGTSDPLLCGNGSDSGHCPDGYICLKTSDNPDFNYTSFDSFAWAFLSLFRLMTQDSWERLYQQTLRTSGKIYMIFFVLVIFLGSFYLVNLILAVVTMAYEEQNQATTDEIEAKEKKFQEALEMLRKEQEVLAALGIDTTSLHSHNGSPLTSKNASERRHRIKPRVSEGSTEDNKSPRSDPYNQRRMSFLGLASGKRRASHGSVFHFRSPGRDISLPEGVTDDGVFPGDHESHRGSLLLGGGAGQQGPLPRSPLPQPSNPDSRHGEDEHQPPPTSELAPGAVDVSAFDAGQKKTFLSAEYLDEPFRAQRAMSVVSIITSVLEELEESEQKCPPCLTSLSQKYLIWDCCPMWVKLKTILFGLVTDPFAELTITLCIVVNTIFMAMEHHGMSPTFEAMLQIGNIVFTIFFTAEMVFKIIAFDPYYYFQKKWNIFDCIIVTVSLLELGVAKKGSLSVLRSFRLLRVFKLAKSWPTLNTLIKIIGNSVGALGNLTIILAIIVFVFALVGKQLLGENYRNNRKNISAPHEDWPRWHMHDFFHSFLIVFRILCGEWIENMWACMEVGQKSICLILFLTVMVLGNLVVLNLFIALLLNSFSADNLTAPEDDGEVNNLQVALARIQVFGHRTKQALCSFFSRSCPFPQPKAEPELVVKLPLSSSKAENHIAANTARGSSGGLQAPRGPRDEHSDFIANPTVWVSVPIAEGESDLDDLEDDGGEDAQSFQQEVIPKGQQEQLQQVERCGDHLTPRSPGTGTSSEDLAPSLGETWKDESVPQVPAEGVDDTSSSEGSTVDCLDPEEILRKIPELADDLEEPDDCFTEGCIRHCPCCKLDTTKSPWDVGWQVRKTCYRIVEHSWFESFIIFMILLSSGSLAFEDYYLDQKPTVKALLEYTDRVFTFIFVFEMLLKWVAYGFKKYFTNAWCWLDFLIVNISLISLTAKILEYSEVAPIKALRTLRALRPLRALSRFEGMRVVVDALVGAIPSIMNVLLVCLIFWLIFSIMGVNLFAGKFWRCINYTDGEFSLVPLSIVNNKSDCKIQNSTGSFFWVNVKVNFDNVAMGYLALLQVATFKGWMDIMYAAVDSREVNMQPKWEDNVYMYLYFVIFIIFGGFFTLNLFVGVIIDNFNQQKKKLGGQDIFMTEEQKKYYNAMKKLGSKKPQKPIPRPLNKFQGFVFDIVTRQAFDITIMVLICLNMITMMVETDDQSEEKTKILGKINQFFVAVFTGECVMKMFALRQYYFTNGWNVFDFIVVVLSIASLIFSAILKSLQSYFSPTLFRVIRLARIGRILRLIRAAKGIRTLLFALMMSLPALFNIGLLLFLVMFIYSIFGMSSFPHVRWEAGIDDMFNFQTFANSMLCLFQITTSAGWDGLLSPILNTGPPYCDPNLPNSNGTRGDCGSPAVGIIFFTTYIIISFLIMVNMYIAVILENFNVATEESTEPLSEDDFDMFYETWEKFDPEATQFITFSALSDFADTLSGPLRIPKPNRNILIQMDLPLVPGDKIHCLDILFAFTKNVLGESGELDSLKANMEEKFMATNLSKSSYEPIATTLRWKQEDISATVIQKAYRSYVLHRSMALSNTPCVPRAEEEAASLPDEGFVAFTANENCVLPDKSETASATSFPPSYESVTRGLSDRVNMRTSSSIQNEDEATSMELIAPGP
human KV7.1, sequence (P51787 whole entry): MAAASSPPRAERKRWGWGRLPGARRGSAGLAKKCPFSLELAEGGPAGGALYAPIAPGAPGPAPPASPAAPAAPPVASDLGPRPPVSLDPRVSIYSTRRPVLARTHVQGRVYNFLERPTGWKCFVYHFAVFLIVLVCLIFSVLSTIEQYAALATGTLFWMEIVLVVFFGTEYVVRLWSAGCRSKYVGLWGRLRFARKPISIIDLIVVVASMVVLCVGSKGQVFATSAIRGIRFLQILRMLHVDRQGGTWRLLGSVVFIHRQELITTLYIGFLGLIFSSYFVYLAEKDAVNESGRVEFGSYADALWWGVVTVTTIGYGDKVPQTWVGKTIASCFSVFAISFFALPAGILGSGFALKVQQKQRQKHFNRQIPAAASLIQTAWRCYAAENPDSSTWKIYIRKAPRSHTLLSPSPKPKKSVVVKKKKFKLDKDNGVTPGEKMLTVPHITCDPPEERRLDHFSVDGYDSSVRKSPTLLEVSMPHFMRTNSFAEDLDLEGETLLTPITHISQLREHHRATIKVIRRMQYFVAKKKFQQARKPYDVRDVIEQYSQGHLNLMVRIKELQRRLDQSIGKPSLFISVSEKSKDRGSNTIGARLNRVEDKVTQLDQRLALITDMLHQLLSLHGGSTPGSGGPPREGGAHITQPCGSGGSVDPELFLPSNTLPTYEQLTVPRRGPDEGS

As a reminder, the inhibition is the drop in the measured response relative to a control, in per cent. For orientation: pIC50 means −log10 of the IC50, conventionally taken in molar units. On to `COCCOC(=O)C1=C(C)NC(C)=C(C(=O)OC(C)C)C1c1cccc([N+](=O)[O-])c1` (stereo not drawn) [Nimodipine], for which the inhibition at 10 µM on Nav1.8 [1] turned out to be 96.1%. Also, on Nav1.8 [2], the pIC50 was 5.92.
Take `CCOC1O[C@H]([C@@H](COCc2ccccc2)OCc2ccccc2)[C@H](OCc2ccccc2)[C@H]1O` (stereo partly drawn) [Tribenoside]: the inhibition at 10 µM on Nav1.8 [1] stood at 86.2%; on human KV7.1, 48.8%.
As to `O=C(c1ccc(OCCN2CCCCC2)cc1)c1c(-c2ccc(O)cc2)sc2cc(O)ccc12` [Raloxifene hydrochloride], the inhibition at 10 µM was determined as 88.4% at Nav1.8 [1] and 43.3% on human KV7.1.
For the compound `COC(=O)C1=C(C)NC(C)=C(C(=O)OCCN(C)Cc2ccccc2)C1c1cccc([N+](=O)[O-])c1` (stereo not drawn) [Nicardipine hydrochloride], the results for the inhibition at 10 µM on Nav1.8 [1] and at human KV7.1 were 123% and 50.7%, respectively. The same compound had a pIC50 at Nav1.8 [2] of 6.22.
Taken in the same sequence, the figures for `COC(=O)C1=C(C)NC(C)=C(C(=O)OC2CCCN(Cc3ccccc3)C2)C1c1cccc([N+](=O)[O-])c1` (stereo not drawn) [Benidipine hydrochloride] were 113%, 51.1% and 5.36.
In the case of `Clc1ccc(COC(Cn2ccnc2)c2ccc(Cl)cc2Cl)cc1` (stereo not drawn) [Econazole nitrate], the inhibition at 10 µM on human KV7.1 came to 85.6%.
`c1ccc2c(c1)Nc1ccccc1S2` [Phenothiazine]: the inhibition at 10 µM on human KV7.1 came to 59.8%.
In the case of `CCSc1ccc2c(c1)N(CCCN1CCN(C)CC1)c1ccccc1S2.O=C(O)CC(O)C(=O)O.O=C(O)CC(O)C(=O)O` [Thiethylperazine dimalate], the “Average percent inhibition at 10 μM (KCNQ1)” value (shortened to “Average percent inhibition”) at human KV7.1 was 56.9%.
As to `C#C[C@]1(O)CC[C@H]2[C@@H]3[C@H](C)CC4=C(CCC(=O)C4)[C@H]3CC[C@@]21C` [Tibolone], the inhibition at 10 µM at human KV7.1 was determined as 87.6%.
Still for that read-out and setting: with `Cc1cccc(N(C)C(=S)Oc2ccc3ccccc3c2)c1` [Tolnaftate] the figure was 69.4%; with `CCOC(=O)C1=C(C)NC(C)=C(C(=O)OC)C1c1cccc([N+](=O)[O-])c1` (stereo not drawn) [Nitrendipine], 46.1%.
As to `C[C@]12CC[C@@H]3c4ccc(O)cc4CC[C@H]3[C@@H]1CC[C@@H]2O` [Estradiol-17 beta], the “Average percent inhibition” value at human KV7.1 was 56.3%.
With `Fc1ccc([C@@H]2CCNC[C@H]2COc2ccc3c(c2)OCO3)cc1` [Paroxetine Hydrochloride], on human KV7.1, the inhibition at 10 µM came out at 59.9%.
On to `CCOC(=O)[C@H](CCc1ccccc1)N[C@H]1CCc2ccccc2N(CC(=O)O)C1=O` [Benazepril hydrochloride], for which the inhibition at 10 µM at human KV7.1 stood at 44.8%.
Still for that read-out and setting: with `CCc1oc2ccccc2c1C(=O)c1cc(Br)c(O)c(Br)c1` [Benzbromarone] the figure was 58.1%; with `Clc1ccccc1C(c1ccccc1)(c1ccccc1)n1ccnc1` [Clotrimazole], 46.3%; with `NS(=O)(=O)c1cc2c(cc1Cl)NC(CC1CCCC1)NS2(=O)=O` (stereo not drawn) [Cyclopenthiazide], 68.3%.
In the case of `CC(C)OC(=O)C(C)(C)Oc1ccc(C(=O)c2ccc(Cl)cc2)cc1` [Fenofibrate], on human KV7.1, the inhibition at 10 µM turned out to be 64%.
For the compound `Oc1cc(Cl)ccc1Oc1ccc(Cl)cc1Cl` [Triclosan], the inhibition at 10 µM on Nav1.8 [1] was 87.8%; on human KV7.1, 74%.
Consider `C[C@H](CCC(=O)O)[C@H]1CC[C@H]2[C@@H]3CC[C@@H]4C[C@H](O)CC[C@]4(C)[C@H]3CC[C@]12C` [Lithocholic acid], for which the inhibition at 10 µM at human KV7.1 came out at 80.8%.
Turning to `CC(=O)SCC(Cc1ccccc1)C(=O)NCC(=O)OCc1ccccc1` (stereo not drawn) [Racecadotril], the inhibition at 10 µM turned out to be 94.8% on Nav1.8 [1] and 46.4% on human KV7.1.
Consider `CC(C)c1c(CN(C)C(C)Cc2ccccc2)n(C)n(-c2ccccc2)c1=O` (stereo not drawn) [Famprofazone], for which the inhibition at 10 µM on human KV7.1 was 50.7%.
For `Clc1ccc(COC(Cn2ccnc2)c2ccc(Cl)cc2Cl)c(Cl)c1` (stereo not drawn) [Miconazole], the inhibition at 10 µM at human KV7.1 came to 79.8%.
As to `CCN1CCN(C(=O)N[C@@H](C(=O)N[C@@H]2C(=O)N3[C@@H]2SC(C)(C)[C@@H]3C(=O)O)c2ccccc2)C(=O)C1=O` [Piperacillin sodium salt], on human KV7.1, the inhibition at 10 µM came to 43.5%.
Regarding `Clc1ccc(CCC(Cn2ccnc2)Sc2c(Cl)cccc2Cl)cc1` (stereo not drawn) [Butoconazole nitrate], the inhibition at 10 µM on human KV7.1 worked out at 67%.
Take `Clc1ccc(C(Cn2ccnc2)OCc2ccsc2Cl)c(Cl)c1` (stereo not drawn) [Tioconazole]: the inhibition at 10 µM at human KV7.1 amounted to 53.5%.
The same measure, in the same setting: the figure for `Clc1ccc(C(c2ccccc2Cl)C(Cl)Cl)cc1` (stereo not drawn) [Mitotane] is 49.5%.
Take `COC(=O)C1=C(C)NC(C)=C(C(=O)OCC(C)C)C1c1ccccc1[N+](=O)[O-]` (stereo not drawn) [Nisoldipine]: the inhibition at 10 µM on human KV7.1 came to 48%.
As for `CC(=O)O[C@H]1CC[C@@]2(C)C(=CC[C@@H]3[C@@H]2CC[C@]2(C)C(=O)CC[C@@H]32)C1` [Dehydroisoandosterone 3-acetate], at human KV7.1, the “Average percent inhibition” value is reported as 52.9%.
In the case of `C#C[C@]1(O)CC[C@H]2[C@@H]3CCc4cc(O)ccc4[C@H]3CC[C@@]21C` [Ethinylestradiol], the inhibition at 10 µM on human KV7.1 came out at 75.8%.
With `CN1CCN(C(c2ccccc2)c2ccccc2)CC1.Cl` [Cyclizine hydrochloride], the “Average percent inhibition” value at human KV7.1 came out at 45.9%.
In the case of `CC/C(=C(/CC)c1ccc(O)cc1)c1ccc(O)cc1` [Diethylstilbestrol], the inhibition at 10 µM at Nav1.8 [1] was 99.5%; at human KV7.1, 90.2%.
For the compound `COC(=O)C1=C(C#N)NC(C)=C(C(=O)OC(C)C)C1c1cccc([N+](=O)[O-])c1` (stereo not drawn) [Nilvadipine], the inhibition at 10 µM at Nav1.8 [1] was 87.9%. This compound also had a negative logarithm of the IC50 (pIC50) at Nav1.8 [2] of 6.22.
Take `COc1cccc(N(C)C(=S)Oc2ccc3c(c2)CCCC3)n1` [Liranaftate]: on human KV7.1, the inhibition at 10 µM stood at 62.8%.
In the case of `O=C1Nc2ccc(Cl)cc2[C@@](C#CC2CC2)(C(F)(F)F)O1` [Efavirenz], on human KV7.1, the inhibition at 10 µM is 80.3%.
On to `C/C=C(/C(=C/C)c1ccc(O)cc1)c1ccc(O)cc1` [Dienestrol], for which the inhibition at 10 µM on human KV7.1 worked out at 61.3%.
Consider `C[C@]12Cc3c[nH]nc3C[C@@H]1CC[C@@H]1[C@@H]2CC[C@@]2(C)[C@H]1CC[C@]2(C)O` [Stanozolol], for which, on human KV7.1, the inhibition at 10 µM is 43.6%.
For `CC[C@H](c1ccc(O)cc1)[C@@H](CC)c1ccc(O)cc1` [Hexestrol], the inhibition at 10 µM turned out to be 91.6% on Nav1.8 [1] and 82% at human KV7.1.
For `C#C[C@]1(OC(C)=O)CC[C@H]2[C@@H]3CCC4=C[C@@H](OC(C)=O)CC[C@@H]4[C@H]3CC[C@@]21C` [Ethynodiol diacetate], the inhibition at 10 µM at human KV7.1 was determined as 88%.
